According to ChEMBL document CHEMBL1201862, “PubChem BioAssay data set” (2004):
One block for each compound: values may come before it. Active and inactive are the calls of the source.

Key:
[1] = HEp-2 cell cytotoxicity, dose response, cytotoxicity control for RSV inhibitor project, HTS (AID 2410); type: functional; settings: human respiratory syncytial virus
[2] = molecular target: T1, Rac GTPase-activating protein 1 (Homo sapiens, UniProt Q9H0H5); test: MgcRacGAP GTPase-activating activity inhibitors, confirmation, biochemical, ADP Hunter fluorescence, primary and confirmatory (AID 624330); type: functional
T1 sequence (Q9H0H5 whole entry): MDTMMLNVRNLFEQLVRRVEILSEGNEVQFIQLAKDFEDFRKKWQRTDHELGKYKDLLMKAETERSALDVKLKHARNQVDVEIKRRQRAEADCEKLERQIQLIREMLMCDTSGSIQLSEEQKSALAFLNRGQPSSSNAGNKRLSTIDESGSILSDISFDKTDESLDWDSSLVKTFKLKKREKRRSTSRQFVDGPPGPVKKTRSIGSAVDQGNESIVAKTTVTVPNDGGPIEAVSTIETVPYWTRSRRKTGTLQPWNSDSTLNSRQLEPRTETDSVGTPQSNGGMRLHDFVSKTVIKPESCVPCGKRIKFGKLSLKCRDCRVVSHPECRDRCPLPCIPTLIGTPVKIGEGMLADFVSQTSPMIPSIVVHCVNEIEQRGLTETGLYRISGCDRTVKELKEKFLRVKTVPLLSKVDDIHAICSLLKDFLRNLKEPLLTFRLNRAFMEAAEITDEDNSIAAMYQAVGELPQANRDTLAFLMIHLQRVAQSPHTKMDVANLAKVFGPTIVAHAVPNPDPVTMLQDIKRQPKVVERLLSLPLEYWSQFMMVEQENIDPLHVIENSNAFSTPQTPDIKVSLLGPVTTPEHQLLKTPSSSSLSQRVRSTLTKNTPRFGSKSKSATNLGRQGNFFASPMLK

[3] = cytotoxicity toward NIH3T3 fibroblasts, dose response, counter-screen, cell-based, ATP luminescence, mouse fibroblasts (AID 2010); type: functional;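 further: cells exposed to compound for about 90 hours before reading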
[4] = inhibitors of intracellular T. cruzi replication, confirmation, NIH3T3 host cells, beta-gal luminescence (AID 2044); type: functional, cell-based;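 further: intracellular parasites grown in NIH/3T3 mouse fibroblasts as host cells; luminescent beta-galactosidase reporter signal from transgenic T. cruzi replicating inside host cells; inhibitors lower the luminescence signal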
[5] = molecular target: T2, Cytochrome P450 1A2 (Homo sapiens, UniProt P05177);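 further: PubChem cytochrome P450 panel assay, CYP1A2 panel member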
T2 sequence (P05177 whole entry): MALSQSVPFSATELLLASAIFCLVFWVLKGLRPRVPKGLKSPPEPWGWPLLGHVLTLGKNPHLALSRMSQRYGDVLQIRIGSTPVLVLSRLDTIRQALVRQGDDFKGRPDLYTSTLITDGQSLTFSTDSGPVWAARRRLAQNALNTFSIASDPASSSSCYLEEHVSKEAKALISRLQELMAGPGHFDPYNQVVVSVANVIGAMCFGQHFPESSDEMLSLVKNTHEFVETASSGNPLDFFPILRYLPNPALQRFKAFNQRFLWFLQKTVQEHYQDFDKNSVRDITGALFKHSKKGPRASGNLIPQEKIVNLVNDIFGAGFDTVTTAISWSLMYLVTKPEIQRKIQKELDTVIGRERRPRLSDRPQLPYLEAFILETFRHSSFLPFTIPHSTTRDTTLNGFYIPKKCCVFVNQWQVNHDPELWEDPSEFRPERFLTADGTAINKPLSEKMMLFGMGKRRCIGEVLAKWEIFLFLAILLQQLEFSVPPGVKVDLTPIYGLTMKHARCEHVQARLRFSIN

[6] = molecular target: Cytochrome P450 2C19 (Homo sapiens, UniProt P33261); test: Cytochrome panel assay with activity outcomes. Panel member name: p450-cyp2c19 Compounds with AC50 equal or less than 10 uM are considered active; type: functional
[7] = molecular target: FAD-linked sulfhydryl oxidase ALR (Homo sapiens, UniProt P55789); test: inhibitors of human ALR sulfhydryl oxidase, dose response, biochemical, H2O2 detection, luminescence, cherry-pick (AID 493248)
[8] = molecular target: Cytochrome P450 2D6 (Homo sapiens, UniProt P10635)
[9] = molecular target: T3, Zinc finger protein mex-5 (Caenorhabditis elegans, UniProt Q9XUB2); test: MEX-5/TCR-2 RNA interaction inhibitors, dose response, biochemical, C. elegans, fluorescence polarization (AID 1960)
T3 sequence (Q9XUB2 whole entry): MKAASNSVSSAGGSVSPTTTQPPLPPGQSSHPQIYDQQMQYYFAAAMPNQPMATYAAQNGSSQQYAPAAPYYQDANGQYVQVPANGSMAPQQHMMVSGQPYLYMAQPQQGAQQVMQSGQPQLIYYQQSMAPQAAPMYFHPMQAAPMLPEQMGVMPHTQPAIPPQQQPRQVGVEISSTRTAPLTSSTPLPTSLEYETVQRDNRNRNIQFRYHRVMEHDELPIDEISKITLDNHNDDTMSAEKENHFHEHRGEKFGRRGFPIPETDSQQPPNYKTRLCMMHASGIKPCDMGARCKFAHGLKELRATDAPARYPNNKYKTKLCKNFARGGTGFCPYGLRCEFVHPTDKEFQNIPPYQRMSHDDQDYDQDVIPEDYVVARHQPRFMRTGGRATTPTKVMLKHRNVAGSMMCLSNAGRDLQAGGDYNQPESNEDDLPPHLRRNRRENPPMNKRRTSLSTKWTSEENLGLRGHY

[10] = molecular target: T4, RNA-binding protein pos-1 (Caenorhabditis elegans, UniProt G5EF15); test: inhibitors of POS-1/mex-3 RNA binding, dose response, biochemical, fluorescence polarization (AID 1964);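 further: purified POS-1 fused to maltose binding protein made in E. coli; potency of compounds blocking POS-1 binding to fluorescent RNA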
T4 sequence (G5EF15 whole entry): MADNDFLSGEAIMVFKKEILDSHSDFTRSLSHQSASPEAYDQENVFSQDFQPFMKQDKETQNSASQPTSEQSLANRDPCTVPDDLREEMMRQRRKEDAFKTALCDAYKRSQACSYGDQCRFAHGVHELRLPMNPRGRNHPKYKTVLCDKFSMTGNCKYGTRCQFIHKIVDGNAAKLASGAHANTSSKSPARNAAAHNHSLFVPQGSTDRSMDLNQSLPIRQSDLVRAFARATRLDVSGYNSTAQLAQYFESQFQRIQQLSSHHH

Sequence of Cytochrome P450 2C19 (P33261 whole entry): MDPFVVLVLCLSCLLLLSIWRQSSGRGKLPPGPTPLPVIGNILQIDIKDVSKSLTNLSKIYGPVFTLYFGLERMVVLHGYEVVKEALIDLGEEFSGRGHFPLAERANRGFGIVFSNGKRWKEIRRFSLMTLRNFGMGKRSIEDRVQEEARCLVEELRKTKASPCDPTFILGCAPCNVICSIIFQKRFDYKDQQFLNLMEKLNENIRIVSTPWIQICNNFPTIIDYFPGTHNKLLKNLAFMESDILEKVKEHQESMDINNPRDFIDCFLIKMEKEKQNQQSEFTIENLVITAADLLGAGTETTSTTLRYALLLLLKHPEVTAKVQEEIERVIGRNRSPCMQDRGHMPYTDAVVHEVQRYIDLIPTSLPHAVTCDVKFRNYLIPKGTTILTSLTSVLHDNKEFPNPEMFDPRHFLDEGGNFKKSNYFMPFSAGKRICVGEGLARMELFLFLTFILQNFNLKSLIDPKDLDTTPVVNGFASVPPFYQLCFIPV
Sequence of FAD-linked sulfhydryl oxidase ALR (P55789 whole entry): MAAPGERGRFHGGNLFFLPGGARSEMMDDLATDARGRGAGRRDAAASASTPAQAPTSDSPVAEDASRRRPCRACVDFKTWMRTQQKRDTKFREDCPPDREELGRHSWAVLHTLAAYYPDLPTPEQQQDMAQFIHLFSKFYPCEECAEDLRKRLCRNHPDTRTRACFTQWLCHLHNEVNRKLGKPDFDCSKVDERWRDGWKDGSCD
Sequence of Cytochrome P450 2D6 (P10635 whole entry): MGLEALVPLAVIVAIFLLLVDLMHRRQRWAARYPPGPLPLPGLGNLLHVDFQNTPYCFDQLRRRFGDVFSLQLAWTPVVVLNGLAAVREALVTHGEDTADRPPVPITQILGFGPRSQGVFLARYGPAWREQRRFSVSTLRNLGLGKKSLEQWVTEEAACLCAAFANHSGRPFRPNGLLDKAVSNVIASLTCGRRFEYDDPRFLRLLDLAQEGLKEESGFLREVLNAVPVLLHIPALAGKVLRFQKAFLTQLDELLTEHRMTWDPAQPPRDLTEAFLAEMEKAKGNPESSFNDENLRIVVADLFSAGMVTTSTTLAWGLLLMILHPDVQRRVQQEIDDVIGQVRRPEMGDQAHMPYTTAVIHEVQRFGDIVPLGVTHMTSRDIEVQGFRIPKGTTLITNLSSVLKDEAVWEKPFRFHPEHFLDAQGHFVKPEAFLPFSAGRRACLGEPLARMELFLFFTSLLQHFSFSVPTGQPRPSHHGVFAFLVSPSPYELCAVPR

IC50 [2]: 82.9 µM (active)
Structure (SMILES): COc1ccc(N2CCN(c3ncccn3)CC2)cc1

AC50 [5]: 28.2 µM (inconclusive)
AC50 ([6]; read-out: AC50): 39.8 µM (inconclusive)
Structure (SMILES): O=C(O)CSc1ncnc2sc3c(c12)CCC3

AC50 [6]: inconclusive
Structure (SMILES): O=C(Nc1cccc(F)c1)N1CC2(CCN(C(=O)c3ccncc3)CC2)C1

IC50 [2]: 46.4 µM (active)
Structure (SMILES): c1csc(CNc2ccc3c(c2)OCCO3)c1

AC50 [8]: 25.1 µM (inconclusive)
AC50 ([6]; read-out: AC50): 28.2 µM (inconclusive)
Structure (SMILES): COc1cc(C(=O)NCCC(=O)NCc2ccc3c(c2)OCO3)cc(OC)c1OC

EC50 [9]: 28.9 µM (active)
EC50 [10]: 52.2 µM (active)
Structure (SMILES): CC1(OC(=O)c2ccco2)C(=O)C=C2C=C(c3ccc(C#N)cc3)OC=C2C1=O (stereo unspecified)

AC50 [7]: 1.49 µM (active)
Structure (SMILES): O=C(O)c1cc2ccccc2cc1Nc1ccccc1

AC50 [7]: 2.18 µM (active)
Structure (SMILES): CCN1/C(=C2/SC(=S)NC2=O)Sc2ccccc21

EC50 [9]: > 300 µM (not active)
EC50 [10]: > 300 µM (not active)
Structure (SMILES): Cc1ccc(C)c(N(C)C(=O)c2coc(=O)c3ccccc23)c1

AC50 [5]: 28.2 µM (inconclusive)
AC50 [7]: 3.94 µM (active)
AC50 ([6]; read-out: AC50): 39.8 µM (inconclusive)
Structure (SMILES): COc1ccc(-c2[nH]c(-c3ccc(C(=O)O)cc3)nc2-c2ccccc2)cc1

AC50 ([6]; read-out: AC50): 5.01 µM (inconclusive)
Structure (SMILES): C#CCCCO/N=C1/C[C@@H](O)[C@@H](O)[C@@H]2[C@@H]3C(=O)N(Cc4ccccc4)C(=O)[C@H]3CC[C@H]12

AC50 [7]: 5.95 µM (active)
Structure (SMILES): O=C(O)c1ccc(-n2c(/C=C/c3ccccc3)nc3ccccc3c2=O)cc1

EC50 [9]: 18.5 µM (active)
EC50 [10]: 117 µM (active)
Structure (SMILES): COc1cc2[nH]c(C(=O)NN)c(N)c2cc1OC

EC50 [9]: > 300 µM (inconclusive)
EC50 [10]: > 300 µM (not active)
Structure (SMILES): COc1ccccc1CCC(=O)OCc1csc(CC(=O)Nc2ccccc2C)n1

More lines, now with the values behind:

Structure (SMILES): Cc1ccc2cccc(S(=O)(=O)N3CCN(c4cccc(Cl)c4)CC3)c2n1
CC50 [1]: 46.9 µM (active)

Structure (SMILES): Nc1ccccc1Nc1cc(-c2ccccc2)nn1-c1cccc(Cl)c1
EC50 [3]: > 60 µM (not active)
EC50 [4]: 5.32 µM (active)
CC50 [1]: 26.3 µM (active)

Structure (SMILES): Cc1ccc(S(=O)(=O)c2c(N)n(NC(=O)c3ccccc3C)c3nc4ccccc4nc23)cc1
CC50 [1]: 22.9 µM (active)

Structure (SMILES): O=C(O)CC/C(=N\Nc1ccccc1[N+](=O)[O-])c1cccs1
AC50 [7]: 2.73 µM (active)

Structure (SMILES): CC(C)CC(=O)C[C@H](O)C(Cl)(Cl)Cl
AC50 ([6]; read-out: AC50): 7.94 µM (inconclusive)

Structure (SMILES): CCCCCCCNC(=O)C1(CC2CC(c3ccc(Cl)cc3)=NO2)CCN(C(=O)C2(C)CC2)CC1 (stereo unspecified)
CC50 [1]: 13.5 µM (active)

Structure (SMILES): CCc1c(C(=O)NCc2ccccc2Cl)[nH]c(C)c1C(C)=O
CC50 [1]: > 50 µM (active)

Structure (SMILES): Cc1ccccc1C(=O)Nc1cc(-c2cc(C(C)(C)C)oc2C)nn1C
CC50 [1]: 19.7 µM (active)

Structure (SMILES): Cc1c(C(=O)NCCSCc2c(F)cccc2Cl)cnn1-c1ccc(Cl)cc1
CC50 [1]: 16.8 µM (active)

Structure (SMILES): N#CC1=C(N)OC2=C(CC/C2=C\c2ccc(F)cc2)C1c1ccc(F)cc1 (stereo unspecified)
CC50 [1]: 8.44 µM (active)

Structure (SMILES): Cc1ccc2nc3c(cc(C(=O)NCC4CCCO4)c(=N)n3C3CCCC3)c(=O)n2c1 (stereo unspecified)
EC50 [9]: > 300 µM (not active)
EC50 [10]: > 300 µM (not active)
